According to patent publication US20150148306A1, “COMPOSITIONS AND METHODS FOR THE TREATMENT OF INFLAMMATION” (priority 2012, published 2015):

Assay: physchem
Assay type: physicochemical
Details: water, thermodynamic from solid
Method: Measurement of the water solubility of the test compounds is accomplished by using methods well known to those skilled in the art. Specifically, to a weighed amount of the test compound of the example compound Formula I (1-1) distilled water was added in small proportions until a clear solution was obtained. The total volume of the solution is measured. The water solubility is calculated by dividing the weight of the salt, in milligrams (mg), by the volume of the solution, in mL. […] The compound of Formula I (1-1) is therefore, at least 372 times more soluble in water than EPA itself. This is a clear indication of an unexpectedly high degree of bioavailability of the compositions of the invention. Highly water soluble medicinal preparations, when administered orally, result in efficient absorption from the gastrointestinal tract in to systemic circulation. Furthermore, water soluble preparations are especially suitable for parenteral administration.

## CC/C=C\C/C=C\C/C=C\C/C=C\C/C=C\CCCC(=O)O [EPA, Eicosapentaenoic Acid]
  solubility: < 200 µg/mL
